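Protocol summary: plate cells (96-well), add compound at 5 concentrations, incubate 48 h, interpolate endpoints linearly. GI50: concentration for 50% inhibition of growth. TGI is the concentration that stops growth completely.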
Key:
Assay in all cases: NCI anticancer screen, dose series, 48 h; in the data active means GI50 below about 0.43 µM; inactive means the rest
786-0 renal = test system: 786-0 renal
A498 renal = test system: A498 renal
A549 NSCLC = test system: A549 NSCLC
ACHN renal = test system: ACHN renal
BT-549 breast = test system: BT-549 breast
CAKI-1 renal = test system: CAKI-1 renal
CCRF-CEM leukemia = test system: CCRF-CEM leukemia
COLO 205 colon = test system: COLO 205 colon
DU-145 prostate = test system: DU-145 prostate
HCC-2998 colon = test system: HCC-2998 colon
HCT-116 colon = test system: HCT-116 colon
HCT-15 colon = test system: HCT-15 colon
HL-60(TB) leukemia = test system: HL-60(TB) leukemia
HOP-62 NSCLC = test system: HOP-62 NSCLC
HS 578T breast = test system: HS 578T breast
HT29 colon = test system: HT29 colon
IGROV1 ovarian = test system: IGROV1 ovarian
K-562 leukemia = test system: K-562 leukemia
KM12 colon = test system: KM12 colon
LOX IMVI melanoma = test system: LOX IMVI melanoma
M14 melanoma = test system: M14 melanoma
MALME-3M melanoma = test system: MALME-3M melanoma
MCF7 breast = test system: MCF7 breast
MDA-MB-231 breast = test system: MDA-MB-231 breast
MOLT-4 leukemia = test system: MOLT-4 leukemia
NCI-H226 lung = test system: NCI-H226 lung
NCI-H23 lung = test system: NCI-H23 lung
NCI-H460 lung = test system: NCI-H460 lung
NCI-H522 lung = test system: NCI-H522 lung
NCI/ADR-RES ovarian = test system: NCI/ADR-RES ovarian
OVCAR-3 ovarian = test system: OVCAR-3 ovarian
OVCAR-4 ovarian = test system: OVCAR-4 ovarian
OVCAR-5 ovarian = test system: OVCAR-5 ovarian
OVCAR-8 ovarian = test system: OVCAR-8 ovarian
PC-3 prostate = test system: PC-3 prostate
RPMI-8226 leukemia = test system: RPMI-8226 leukemia
RXF 393 renal = test system: RXF 393 renal
SF-268 CNS = test system: SF-268 CNS
SF-295 CNS = test system: SF-295 CNS
SF-539 CNS = test system: SF-539 CNS
SK-MEL-2 melanoma = test system: SK-MEL-2 melanoma
SK-MEL-28 melanoma = test system: SK-MEL-28 melanoma
SK-MEL-5 melanoma = test system: SK-MEL-5 melanoma
SK-OV-3 ovarian = test system: SK-OV-3 ovarian
SN12C renal = test system: SN12C renal
SNB-19 CNS = test system: SNB-19 CNS
SNB-75 CNS = test system: SNB-75 CNS
SR leukemia = test system: SR leukemia
SW-620 colon = test system: SW-620 colon
T-47D breast = test system: T-47D breast
TK-10 renal = test system: TK-10 renal
U251 CNS = test system: U251 CNS
UACC-257 melanoma = test system: UACC-257 melanoma
UACC-62 melanoma = test system: UACC-62 melanoma
UO-31 renal = test system: UO-31 renal
EKVX NSCLC = test system: EKVX NSCLC
HOP-92 NSCLC = test system: HOP-92 NSCLC

Cc1c(C2=C(c3cn(C)c4ccccc34)C(=O)NC2=O)c2ccccc2n1C
19.6 µM: TGI (RXF 393 renal)
> 25 µM: TGI (786-0 renal) | TGI (A549 NSCLC) | TGI (ACHN renal) | TGI (BT-549 breast) | TGI (CAKI-1 renal) | TGI (CCRF-CEM leukemia) | TGI (COLO 205 colon) | TGI (DU-145 prostate) | TGI (HCC-2998 colon) | TGI (HCT-116 colon) | TGI (HCT-15 colon) | TGI (HL-60(TB) leukemia) | TGI (HOP-62 NSCLC) | TGI (HS 578T breast) | TGI (HT29 colon) | TGI (IGROV1 ovarian) | TGI (K-562 leukemia) | TGI (KM12 colon) | TGI (LOX IMVI melanoma) | TGI (M14 melanoma) | TGI (MALME-3M melanoma) | TGI (MCF7 breast) | TGI (MDA-MB-231 breast) | TGI (MOLT-4 leukemia) | TGI (NCI-H226 lung) | TGI (NCI-H23 lung) | TGI (NCI-H460 lung) | TGI (NCI-H522 lung) | TGI (NCI/ADR-RES ovarian) | TGI (OVCAR-4 ovarian) | TGI (OVCAR-5 ovarian) | TGI (OVCAR-8 ovarian) | TGI (PC-3 prostate) | TGI (RPMI-8226 leukemia) | TGI (SF-268 CNS) | TGI (SF-295 CNS) | TGI (SK-MEL-28 melanoma) | TGI (SK-MEL-5 melanoma) | TGI (SK-OV-3 ovarian) | TGI (SN12C renal) | TGI (SNB-19 CNS) | TGI (SR leukemia) | TGI (SW-620 colon) | TGI (T-47D breast) | TGI (TK-10 renal) | TGI (U251 CNS) | TGI (UACC-257 melanoma) | TGI (UACC-62 melanoma) | TGI (UO-31 renal)
11.2 µM: TGI (A498 renal)
7.38 µM: TGI (SNB-75 CNS)
> 6.77 µM: TGI (SF-539 CNS)
4.73 µM: TGI (OVCAR-3 ovarian)
inactive: GI50 (786-0 renal) 3.56 µM | GI50 (A498 renal) 1.91 µM | GI50 (A549 NSCLC) 1.74 µM | GI50 (ACHN renal) 4.57 µM | GI50 (BT-549 breast) 2.09 µM | GI50 (CAKI-1 renal) 1.81 µM | GI50 (CCRF-CEM leukemia) 1.47 µM | GI50 (COLO 205 colon) 1.51 µM | GI50 (DU-145 prostate) 9.62 µM | GI50 (HCC-2998 colon) 24.9 µM | GI50 (HCT-116 colon) 1.38 µM | GI50 (HCT-15 colon) 1.3 µM | GI50 (HL-60(TB) leukemia) 0.962 µM | GI50 (HOP-62 NSCLC) 2.72 µM | GI50 (HS 578T breast) 0.943 µM | GI50 (HT29 colon) 1.12 µM | GI50 (IGROV1 ovarian) > 10.2 µM | GI50 (K-562 leukemia) 1.21 µM | GI50 (KM12 colon) 3.87 µM | GI50 (LOX IMVI melanoma) 5.3 µM | GI50 (M14 melanoma) 1.5 µM | GI50 (MALME-3M melanoma) > 25 µM | GI50 (MCF7 breast) 0.997 µM | GI50 (MDA-MB-231 breast) > 18.6 µM | GI50 (MOLT-4 leukemia) 2.18 µM | GI50 (NCI-H226 lung) 4.33 µM | GI50 (NCI-H23 lung) 13.2 µM | GI50 (NCI-H460 lung) 1.29 µM | GI50 (NCI-H522 lung) 0.969 µM | GI50 (NCI/ADR-RES ovarian) 3.65 µM | GI50 (OVCAR-3 ovarian) 0.882 µM | GI50 (OVCAR-4 ovarian) 9.22 µM | GI50 (OVCAR-5 ovarian) > 25 µM | GI50 (OVCAR-8 ovarian) 10.8 µM | GI50 (PC-3 prostate) 4.38 µM | GI50 (RPMI-8226 leukemia) > 13.8 µM | GI50 (RXF 393 renal) 1.38 µM | GI50 (SF-268 CNS) 4.82 µM | GI50 (SF-295 CNS) 1.16 µM | GI50 (SF-539 CNS) 0.921 µM | GI50 (SK-MEL-2 melanoma) 1.93 µM | GI50 (SK-MEL-28 melanoma) > 22.3 µM | GI50 (SK-MEL-5 melanoma) 2.29 µM | GI50 (SK-OV-3 ovarian) 1.78 µM | GI50 (SN12C renal) 15.5 µM | GI50 (SNB-19 CNS) > 25 µM | GI50 (SNB-75 CNS) 0.732 µM | GI50 (SR leukemia) 1.18 µM | GI50 (SW-620 colon) 1.26 µM | GI50 (T-47D breast) 4.07 µM | GI50 (TK-10 renal) 6 µM | GI50 (U251 CNS) 2.01 µM | GI50 (UACC-257 melanoma) > 25 µM | GI50 (UACC-62 melanoma) 1.95 µM | GI50 (UO-31 renal) 1.74 µM
24.3 µM: TGI (SK-MEL-2 melanoma)

COc1ccc(C2[C@@H](Cl)C(=O)N2c2cc(OC)c(OC)c(OC)c2)cc1Cl (stereo partly drawn)
20.8 µM: TGI (LOX IMVI melanoma)
72.4 µM: TGI (MALME-3M melanoma)
inactive: GI50 (EKVX NSCLC) 0.434 µM | GI50 (HOP-92 NSCLC) 2.29 µM | GI50 (MALME-3M melanoma) 20.7 µM | GI50 (NCI-H23 lung) 0.428 µM | GI50 (OVCAR-4 ovarian) 0.837 µM | GI50 (SK-MEL-28 melanoma) 0.654 µM | GI50 (TK-10 renal) 0.94 µM | GI50 (UO-31 renal) 1.09 µM
18.5 µM: TGI (KM12 colon)
0.463 µM: TGI (HL-60(TB) leukemia)
22.5 µM: TGI (SK-MEL-2 melanoma)
71.2 µM: TGI (SNB-75 CNS)
0.648 µM: TGI (SF-295 CNS)
3.47 µM: TGI (RPMI-8226 leukemia)
39.4 µM: TGI (CCRF-CEM leukemia)
26.1 µM: TGI (MDA-MB-231 breast)
> 100 µM: TGI (A549 NSCLC) | TGI (CAKI-1 renal) | TGI (DU-145 prostate) | TGI (EKVX NSCLC) | TGI (HCT-15 colon) | TGI (HOP-62 NSCLC) | TGI (K-562 leukemia) | TGI (MCF7 breast) | TGI (NCI-H23 lung) | TGI (NCI/ADR-RES ovarian) | TGI (OVCAR-4 ovarian) | TGI (OVCAR-5 ovarian) | TGI (PC-3 prostate) | TGI (SK-OV-3 ovarian) | TGI (SN12C renal) | TGI (SNB-19 CNS) | TGI (SR leukemia)
6.95 µM: TGI (NCI-H460 lung)
85.9 µM: TGI (HOP-92 NSCLC)
71.7 µM: TGI (TK-10 renal)
41.5 µM: TGI (IGROV1 ovarian)
0.712 µM: TGI (M14 melanoma)
87.3 µM: TGI (SK-MEL-28 melanoma)
0.576 µM: TGI (OVCAR-3 ovarian)
32.7 µM: TGI (UO-31 renal)
65.5 µM: TGI (RXF 393 renal)
70.3 µM: TGI (HS 578T breast)
29 µM: TGI (UACC-62 melanoma)
active: GI50 (786-0 renal) 0.0389 µM | GI50 (A498 renal) 0.0285 µM | GI50 (A549 NSCLC) 0.364 µM | GI50 (ACHN renal) 0.0798 µM | GI50 (BT-549 breast) 0.102 µM | GI50 (CAKI-1 renal) 0.146 µM | GI50 (CCRF-CEM leukemia) 0.19 µM | GI50 (COLO 205 colon) 0.203 µM | GI50 (DU-145 prostate) 0.37 µM | GI50 (HCC-2998 colon) 0.41 µM | GI50 (HCT-116 colon) 0.0721 µM | GI50 (HCT-15 colon) 0.191 µM | GI50 (HL-60(TB) leukemia) 0.175 µM | GI50 (HOP-62 NSCLC) 0.18 µM | GI50 (HS 578T breast) 0.0705 µM | GI50 (HT29 colon) 0.221 µM | GI50 (IGROV1 ovarian) 0.343 µM | GI50 (K-562 leukemia) 0.041 µM | GI50 (KM12 colon) 0.178 µM | GI50 (LOX IMVI melanoma) 0.163 µM | GI50 (M14 melanoma) 0.0773 µM | GI50 (MCF7 breast) 0.0367 µM | GI50 (MDA-MB-231 breast) 0.273 µM | GI50 (MOLT-4 leukemia) 0.275 µM | GI50 (NCI-H226 lung) 0.239 µM | GI50 (NCI-H460 lung) 0.317 µM | GI50 (NCI-H522 lung) 0.0353 µM | GI50 (NCI/ADR-RES ovarian) 0.0692 µM | GI50 (OVCAR-3 ovarian) 0.12 µM | GI50 (OVCAR-5 ovarian) 0.369 µM | GI50 (OVCAR-8 ovarian) 0.272 µM | GI50 (PC-3 prostate) 0.0642 µM | GI50 (RPMI-8226 leukemia) 0.279 µM | GI50 (RXF 393 renal) 0.0615 µM | GI50 (SF-268 CNS) 0.291 µM | GI50 (SF-295 CNS) 0.0411 µM | GI50 (SK-MEL-2 melanoma) 0.177 µM | GI50 (SK-MEL-5 melanoma) 0.102 µM | GI50 (SK-OV-3 ovarian) 0.29 µM | GI50 (SN12C renal) 0.414 µM | GI50 (SNB-19 CNS) 0.293 µM | GI50 (SNB-75 CNS) 0.0734 µM | GI50 (SR leukemia) 0.0551 µM | GI50 (SW-620 colon) 0.132 µM | GI50 (U251 CNS) 0.197 µM | GI50 (UACC-62 melanoma) 0.0463 µM
10.1 µM: TGI (786-0 renal)
50.5 µM: TGI (MOLT-4 leukemia)
0.296 µM: TGI (NCI-H522 lung)
0.752 µM: TGI (HT29 colon)
17.6 µM: TGI (HCC-2998 colon)
65 µM: TGI (SW-620 colon)
30.6 µM: TGI (SF-268 CNS)
0.61 µM: TGI (BT-549 breast)
0.512 µM: TGI (COLO 205 colon)
0.263 µM: TGI (A498 renal)
15.2 µM: TGI (HCT-116 colon)
20.5 µM: TGI (OVCAR-8 ovarian)
0.795 µM: TGI (SK-MEL-5 melanoma)
21.3 µM: TGI (U251 CNS)
49.1 µM: TGI (ACHN renal)
34 µM: TGI (NCI-H226 lung)
